The results in this text go back to US8063048B2, “Acetylenyl-pyrazolo-pyrimidine derivatives” (Hoffmann-La Roche Inc., priority 2005, dated 2011).

`Cc1cc(-c2cc(C(F)(F)F)n3ncc(C#Cc4ccc(S(=O)(=O)NC(C)(C)C)s4)c3n2)ccc1Cl` [Example 115, 5-[5-(4-Chloro-3-methyl-phenyl)-7-trifluoromethyl-pyrazolo[1,5-a]pyrimidin-3-ylethynyl]-thiophene-2-sulfonic acid tert-butylamide] came in with a melting point of 244 °C. For `CC(C)(C)NS(=O)(=O)c1ccc(C#Cc2cnn3c(C(F)F)cc(-c4cccc(C(F)(F)F)c4)nc23)s1` [Example 161, 5-[7-Difluoromethyl-5-(3-trifluoromethyl-phenyl)-pyrazolo[1,5-a]pyrimidin-3-ylethynyl]-thiophene-2-sulfonic acid tert-butylamide], the melting point came to 201 °C.

`NS(=O)(=O)c1cc(C#Cc2cnn3c(C(F)F)cc(-c4ccc(C(F)(F)F)cc4)nc23)c(F)cc1F` [Example 31, 5-[7-Difluoromethyl-5-(4-trifluoromethyl-phenyl)-pyrazolo[1,5-a]pyrimidin-3-ylethynyl]-2,4-difluoro-benzenesulfonamide] showed a melting point of 256 to 258 °C.

`CC(=O)N(C(C)=O)c1ncc(C#Cc2cnn3c(C(F)(F)F)cc(-c4ccc(C(F)(F)F)cc4)nc23)cn1` [Example 244, N-Acetyl-N-{5-[7-trifluoromethyl-5-(4-trifluoromethyl-phenyl)-pyrazolo[1,5-a]pyrimidin-3-ylethynyl]-pyrimidin-2-yl}-acetamide] gave a melting point of 253 to 254 °C.

Compound `NS(=O)(=O)c1cccc(C#Cc2cnn3c(C4CC4)cc(-c4ccc(Cl)c(Cl)c4)nc23)c1` [Example 87, 3-[7-Cyclopropyl-5-(3,4-dichloro-phenyl)-pyrazolo[1,5-a]pyrimidin-3-ylethynyl]-benzenesulfonamide] gave a melting point of 200 to 202 °C.

On to `NS(=O)(=O)c1cc(C#Cc2cnn3c(C(F)(F)F)cc(-c4cccc(C(F)(F)F)c4)nc23)c(F)cc1F` [Example 116, 2,4-Difluoro-5-[7-trifluoromethyl-5-(3-trifluoromethyl-phenyl)-pyrazolo[1,5-a]pyrimidin-3-ylethynyl]-benzenesulfonamide], for which the melting point amounted to 264 °C. Then `O=S(=O)(Nc1ccncc1)c1ccc(C#Cc2cnn3c(C(F)F)cc(-c4ccc(C(F)(F)F)cc4)nc23)s1` [Example 282, 5-[7-Difluoromethyl-5-(4-trifluoromethyl-phenyl)-pyrazolo[1,5-a]pyrimidin-3-ylethynyl]-thiophene-2-sulfonic acid pyridin-4-ylamide], with 215 °C. For `Nc1ccc(C#Cc2cnn3c(C(F)(F)F)cc(-c4ccc(C(F)(F)F)cc4)cc23)cn1` [Example 235, 5-[7-Trifluoromethyl-5-(4-trifluoromethyl-phenyl)-pyrazolo[1,5-a]pyridin-3-ylethynyl]-pyridin-2-ylamine], the melting point was in the range of 243 to 245 °C. The compound `CC(C)(CO)NS(=O)(=O)c1cncc(C#Cc2cnn3ccc(-c4ccc(Cl)cc4)nc23)c1` [Example 74, 5-[5-(4-Chloro-phenyl)-pyrazolo[1,5-a]pyrimidin-3-ylethynyl]-pyridine-3-sulfonic acid (2-hydroxy-1,1-dimethyl-ethyl)-amide] registered a melting point of 185 to 186 °C.

As for `CC(CO)(CO)NS(=O)(=O)c1cncc(C#Cc2cnn3c(C(F)F)cc(-c4ccc(C(F)(F)F)cc4)nc23)c1` [Example 26, 5-[7-Difluoromethyl-5-(4-trifluoromethyl-phenyl)-pyrazolo[1,5-a]pyrimidin-3-ylethynyl]-pyridine-3-sulfonic acid (2-hydroxy-1-hydroxymethyl-1-methyl-ethyl)-amide], the melting point was 204 to 206 °C. The compound `Cc1cc(-c2ccc(C(F)(F)F)cc2)nc2c(C#Cc3ccc(S(=O)(=O)NC(CO)CO)s3)cnn12` [Example 308, 5-[7-Methyl-5-(4-trifluoromethyl-phenyl)-pyrazolo[1,5-a]pyrimidin-3-ylethynyl]-thiophene-2-sulfonic acid (2-hydroxy-1-hydroxymethyl-ethyl)-amide] gave a melting point of 148 to 152 °C. In the case of `Cc1cc(-c2cc(C(F)(F)F)n3ncc(C#Cc4cccc(S(N)(=O)=O)c4)c3n2)ccc1Cl` [Example 112, 3-[5-(4-Chloro-3-methyl-phenyl)-7-trifluoromethyl-pyrazolo[1,5-a]pyrimidin-3-ylethynyl]-benzenesulfonamide], the melting point was 234 °C. To `CC(C)(CO)NS(=O)(=O)c1cncc(C#Cc2cnn3c(C(F)F)cc(-c4ccc(C(F)(F)F)cc4)nc23)c1` [Example 27, 5-[7-Difluoromethyl-5-(4-trifluoromethyl-phenyl)-pyrazolo[1,5-a]pyrimidin-3-ylethynyl]-pyridine-3-sulfonic acid (2-hydroxy-1,1-dimethyl-ethyl)-amide] belongs 200 to 201 °C; to `Cc1nc(C#Cc2cnn3c(C(F)(F)F)cc(-c4ccc(C(F)(F)F)cc4)nc23)sc1S(N)(=O)=O` [Example 54, 4-Methyl-2-[7-trifluoromethyl-5-(4-trifluoromethyl-phenyl)-pyrazolo[1,5-a]pyrimidin-3-ylethynyl]-thiazole-5-sulfonic acid amide], 245 to 246 °C; to `CN(C)CCNS(=O)(=O)c1cccc(C#Cc2cnn3c(C(F)F)cc(-c4ccc(C(F)(F)F)cc4)nc23)c1` [Example 148, 3-[7-Difluoromethyl-5-(4-trifluoromethyl-phenyl)-pyrazolo[1,5-a]pyrimidin-3-ylethynyl]-N-(2-dimethylamino-ethyl)-benzenesulfonamide], 160 to 162 °C. To `FC(F)(F)c1ccc(-c2cc(C(F)(F)F)n3ncc(C#Cc4ccc(C5CC5)nc4)c3n2)cc1` [Example 10, 3-(2-Cyclopropyl-pyridin-5-ylethynyl)-7-trifluoromethyl-5-(4-trifluoromethyl-phenyl)-pyrazolo[1,5-a]pyrimidine] belongs 138 to 140 °C; to `O=S(=O)(c1ccc(C#Cc2cnn3c(C(F)(F)F)cc(-c4cccc(C(F)(F)F)c4)nc23)s1)N1CCNCC1` [Example 261, 3-[5-(piperazine-1-sulfonyl)-thiophen-2-ylethynyl]-7-trifluoromethyl-5-(3-trifluoromethyl-phenyl)-pyrazolo[1,5-a]pyrimidine], 160 °C. In turn, `CC(O)c1ccc(C#Cc2cnc3c(C(F)(F)F)cc(-c4ccc(C(F)(F)F)cc4)cn23)cc1` (centres unmarked) [Example 195, 1-{4-[8-Trifluoromethyl-6-(4-trifluoromethyl-phenyl)-imidazo[1,2-a]pyridin-3-ylethynyl]-phenyl}-ethanol] displayed a melting point of 157 to 158 °C. To `Cc1cc(-c2cc(C(F)(F)F)n3ncc(C#Cc4ccc(S(=O)(=O)NCCN(C)C)s4)c3n2)ccc1Cl` [Example 257, 5-[5-(4-Chloro-3-methyl-phenyl)-7-trifluoromethyl-pyrazolo[1,5-a]pyrimidin-3-ylethynyl]-thiophene-2-sulfonic acid (2-dimethylamino-ethyl)-amide] belongs 179 °C. For the compound `NCCNS(=O)(=O)c1ccc(C#Cc2cnn3c(C(F)(F)F)cc(-c4cccc(C(F)(F)F)c4)nc23)s1` [Example 262, 5-[7-Trifluoromethyl-5-(3-trifluoromethyl-phenyl)-pyrazolo[1,5-a]pyrimidin-3-ylethynyl]-thiophene-2-sulfonic acid (2-amino-ethyl)-amide], the melting point was determined as 196 °C.

What is called melting point is the temperature, or range, at which the solid turns liquid.
